# Data as given in patent publication US20180201592A1, “2-AMINO-1,3,4-THIADIAZINE AND 2-AMINO-1,3,4-OXADIAZINE BASED ANTIFUNGAL AGENTS” (F2G Limited, priority 2015, published 2018).
# How the values were obtained:
# Conditions in all cases: banded MIC grade
# Aspergillus fumigatus = test: Minimum inhibitory concentration, YAG medium; type: cell-based
# In short: (§1)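 Broth microdilution in YAG medium; inoculum 1-2×10^4 cfu/mL; compound 50-0.05 mg/L in doubling steps, from DMSO stock. 24 h, 35° C. Read OD 485 nm; MIC = lowest conc. inhibiting growth >70% vs no-drug control, in mg/L.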
# A. fumigatus 210 = test: Minimum inhibitory concentration, YAG medium; type: cell-based, Aspergillus fumigatus
# In short: as §1
# A. terreus 49 = test: Minimum inhibitory concentration, YAG medium; type: cell-based, Aspergillus terreus
# In short: (§2)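 Twofold aqueous dilution series, prepared from a DMSO stock (5 mg/mL), were inoculated with Aspergillus spp. spores; incubation lasted 24 hrs at 35° C before OD 485 nm readings.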
# Aspergillus flavus = test: Minimum inhibitory concentration, YAG medium; type: cell-based
# In short: as §2
# Aspergillus niger = test: Minimum inhibitory concentration, YAG medium; type: cell-based
# In short: as §2
# Aspergillus terreus = test: Minimum inhibitory concentration, YAG medium; type: cell-based
# In short: as §2
# C. albicans = test: Minimum inhibitory concentration, RPMI medium; type: cell-based
# In short: (§3)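 Incubated at 35° C for 24-48 hrs in RPMI 1640 with twofold water dilutions of compound (from 5 mg/mL stock in DMSO); absorbance at 485 nm indicated growth.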
# C. parapsilosis = test: Minimum inhibitory concentration, RPMI medium; type: cell-based
# In short: as §3
# C. tropicalis = test: Minimum inhibitory concentration, RPMI medium; type: cell-based
# In short: as §3
SMILES,"MIC grade, A. FUMIGATUS, YAG media (Aspergillus fumigatus)","MIC grade, A. FUMIGATUS 210, YAG media (A. fumigatus 210)","MIC grade, A. TERREUS 49, YAG media (A. terreus 49)","MIC grade, A. FLAVUS, YAG media (Aspergillus flavus)","MIC grade, A. NIGER, YAG media (Aspergillus niger)","MIC grade, A. TERREUS, YAG media (Aspergillus terreus)","MIC grade, C. ALBICANS, RPMI media (C. albicans)","MIC grade, C. PARAPSILOSIS, RPMI media (C. parapsilosis)","MIC grade, C. TROPICALIS, RPMI media (C. tropicalis)"
N#Cc1ccc(C2=NN=C(N)SC2)cc1,1 (1: ≥5 mg/L),2 (2: 1-5 mg/L),2 (2: 1-5 mg/L),2 (2: 1-5 mg/L),2 (2: 1-5 mg/L),2 (2: 1-5 mg/L),1 (1: ≥20 mg/L),1 (1: ≥20 mg/L),1 (1: ≥20 mg/L)
NC1=NN=C(CCOC2CCCCC2)CS1,2 (2: 1-5 mg/L),1 (1: ≥5 mg/L),2 (2: 1-5 mg/L),2 (2: 1-5 mg/L),2 (2: 1-5 mg/L),2 (2: 1-5 mg/L),1 (1: ≥20 mg/L),2 (2: 5-20 mg/L),1 (1: ≥20 mg/L)
NC1=NN=C(CCOCc2ccccc2)CS1,3 (3: 0.2-1 mg/L),2 (2: 1-5 mg/L),3 (3: 0.2-1 mg/L),3 (3: 0.2-1 mg/L),3 (3: 0.2-1 mg/L),3 (3: 0.2-1 mg/L),1 (1: ≥20 mg/L),3 (3: 1-5 mg/L),1 (1: ≥20 mg/L)
CCCCOCCC1=NN=C(N)SC1,4 (4: <0.2 mg/L),4 (4: <0.2 mg/L),4 (4: <0.2 mg/L),3 (3: 0.2-1 mg/L),4 (4: <0.2 mg/L),4 (4: <0.2 mg/L),1 (1: ≥20 mg/L),4 (4: <1 mg/L),2 (2: 5-20 mg/L)
CC(C)OCCC1=NN=C(N)SC1,4 (4: <0.2 mg/L),1 (1: ≥5 mg/L),2 (2: 1-5 mg/L),1 (1: ≥5 mg/L),1 (1: ≥5 mg/L),2 (2: 1-5 mg/L),1 (1: ≥20 mg/L),3 (3: 1-5 mg/L),1 (1: ≥20 mg/L)
NC1=NN=C(c2ccccn2)CS1,1 (1: ≥5 mg/L),1 (1: ≥5 mg/L),1 (1: ≥5 mg/L),1 (1: ≥5 mg/L),2 (2: 1-5 mg/L),1 (1: ≥5 mg/L),1 (1: ≥20 mg/L),1 (1: ≥20 mg/L),1 (1: ≥20 mg/L)
NC1=NN=C(c2ccc(C3CCCCC3)cc2)CS1,1 (1: ≥5 mg/L),1 (1: ≥5 mg/L),1 (1: ≥5 mg/L),1 (1: ≥5 mg/L),1 (1: ≥5 mg/L),1 (1: ≥5 mg/L),1 (1: ≥20 mg/L),1 (1: ≥20 mg/L),1 (1: ≥20 mg/L)
CC(C)c1ccc(C2=NN=C(N)SC2)cc1,1 (1: ≥5 mg/L),1 (1: ≥5 mg/L),2 (2: 1-5 mg/L),1 (1: ≥5 mg/L),1 (1: ≥5 mg/L),2 (2: 1-5 mg/L),1 (1: ≥20 mg/L),1 (1: ≥20 mg/L),1 (1: ≥20 mg/L)
COc1ccc(C2=NN=C(N)SC2)cc1,2 (2: 1-5 mg/L),2 (2: 1-5 mg/L),3 (3: 0.2-1 mg/L),2 (2: 1-5 mg/L),2 (2: 1-5 mg/L),3 (3: 0.2-1 mg/L),1 (1: ≥20 mg/L),1 (1: ≥20 mg/L),1 (1: ≥20 mg/L)
NC1=NN=C(CCCCc2ccccc2)CS1,4 (4: <0.2 mg/L),4 (4: <0.2 mg/L),4 (4: <0.2 mg/L),4 (4: <0.2 mg/L),4 (4: <0.2 mg/L),4 (4: <0.2 mg/L),2 (2: 5-20 mg/L),4 (4: <1 mg/L),2 (2: 5-20 mg/L)
CCCc1ccc(C2=NN=C(N)SC2)cc1,3 (3: 0.2-1 mg/L),3 (3: 0.2-1 mg/L),3 (3: 0.2-1 mg/L),2 (2: 1-5 mg/L),2 (2: 1-5 mg/L),3 (3: 0.2-1 mg/L),1 (1: ≥20 mg/L),1 (1: ≥20 mg/L),1 (1: ≥20 mg/L)
NC1=NN=C(CCCCCOc2ccccc2)CS1,4 (4: <0.2 mg/L),4 (4: <0.2 mg/L),4 (4: <0.2 mg/L),4 (4: <0.2 mg/L),4 (4: <0.2 mg/L),4 (4: <0.2 mg/L),4 (4: <1 mg/L),4 (4: <1 mg/L),4 (4: <1 mg/L)
NC1=NNC2=C(CCCC2)S1,2 (2: 1-5 mg/L),3 (3: 0.2-1 mg/L),2 (2: 1-5 mg/L),1 (1: ≥5 mg/L),2 (2: 1-5 mg/L),2 (2: 1-5 mg/L),1 (1: ≥20 mg/L),1 (1: ≥20 mg/L),1 (1: ≥20 mg/L)
CCCCOC1CCC2=NN=C(N)SC2C1 (stereo not drawn),1 (1: ≥5 mg/L),3 (3: 0.2-1 mg/L),2 (2: 1-5 mg/L),2 (2: 1-5 mg/L),2 (2: 1-5 mg/L),2 (2: 1-5 mg/L),1 (1: ≥20 mg/L),1 (1: ≥20 mg/L),1 (1: ≥20 mg/L)
CCCCOC(=O)CC1=NN=C(N)SC1,2 (2: 1-5 mg/L),3 (3: 0.2-1 mg/L),3 (3: 0.2-1 mg/L),2 (2: 1-5 mg/L),3 (3: 0.2-1 mg/L),2 (2: 1-5 mg/L),1 (1: ≥20 mg/L),3 (3: 1-5 mg/L),1 (1: ≥20 mg/L)
